Where two headings read alike, the source gives them in different places.
Columns and labels:
Format in all cases: in vivo, human
[1] = test system: overweight/obese subjects with Type 2 Diabetes Mellitus (T2DM); test: Hemoglobin A1c (HbA1c), Phase 2a study
Protocol: The change in hemoglobin A1c (glycated hemoglobin; HbA1c) from baseline to Day 28 was assessed.

[2] = Safety: adverse events, laboratory values, vital signs, ECG
Protocol: (§1) Blood samples were collected to evaluate anti-drug antibody (ADA) response to cotadutide. Serum samples were evaluated for ADA using a validated immunoassay. Adverse events (AEs) and serious adverse events (SAEs) were collected from the time of informed consent throughout the treatment period and including the follow-up period. AEs and SAEs were graded by severity and relationship to investigational product and SAEs were assessed for relationship to protocol procedures.

[3] = test system: overweight/obese subjects with Type 2 Diabetes Mellitus (T2DM); conditions: for Change from baseline in percentage of CGM glucose readings within the hyperglycemic range, mean: glucose >180 mg/dL; for Change from baseline in percentage of CGM glucose readings within the euglycemic range, mean: glucose ≥70 and ≤180 mg/dL; for 7-Day CGM mean glucose, mean / 7-Day CGM mean glucose, median: post-hoc
From the text: A continuous glucose monitoring (CGM) device was used to measure interstitial glucose levels during the study. Subjects wore the CGM sensor continuously up until the time of a sensor change (every 7 to 14 days). If a subject was unable to tolerate wearing the CGM sensor for the entire duration of the study, the sensor was to be removed; but the subject should have remained in the study with or without continued CGM.
Subjects underwent continuous glucose monitoring (CGM) for a total of 28 days with sensor changes every 7 to 14 days. The changes in CGM glucose AUC0-24 h and mean glucose over 24 hours from baseline to the end of each dosing level on Days 7 (100 μg), 14 (200 μg), and 28 (300 μg) were measured. Variability in glucose levels was also assessed by measuring the changes in standard deviation (SD), coefficient of variation (CV), and mean amplitude of glucose excursion (MAGE) of CGM glucose values over 24 hours.
Changes from baseline in the percentages of 24-hour CGM glucose readings that fell within the euglycemic, hyperglycemic, hypoglycemic, and clinically significant hypoglycemic ranges were assessed at the end of each dosing level.
In addition, a post-hoc analysis of CGM mean glucose over 7 days was conducted to further evaluate the effect of cotadutide on glucose control at each dose level.

[4] = Immunogenicity: anti-drug antibody (ADA) response to cotadutide
Protocol: as §1
Development of ADA and titres (in any subjects testing positive) were assessed to evaluate the immunogenicity profile of cotadutide titrated up to a dose of 300 μg. No subjects in the placebo group and 3 subjects (12.0%) in the cotadutide group tested positive for ADA at baseline. None of these subjects who tested positive at baseline were ADA positive post-baseline. One subject (4.2%) in the placebo group and 3 subjects (12.5%) in the cotadutide group were ADA positive post-baseline.

[5] = Pharmacokinetics of cotadutide in plasma (LC-MS/MS)
Protocol: The Cmax and the corresponding tmax were identified from the observed data. Log-linear regression of the terminal phase yielded the terminal rate constant (λz). The area under the plasma concentration time-curve during the dosing interval (AUCτ) was calculated by the log-linear trapezoidal rule. The area under the curve to infinity (AUC0-inf) was calculated as the sum of AUC(o-t) and Ct/z, where Ct is the observed plasma concentration obtained from the log-linear regression analysis of the last quantifiable time point and z is the terminal phase rate constant. Clearance (CL/F) was determined by dose/AUC0-inf, and the terminal half-life (t1/2) was calculated as 0.693/λz.

[6] = test system: overweight/obese subjects with Type 2 Diabetes Mellitus (T2DM); test: Mixed-meal tolerance test (MMTT) plasma glucose AUC0-4 h, Phase 2a study
Protocol: Subjects were admitted to the unit on Day −2 and on Day 27. On Day −1 and on Day 28, following a minimum 10 hour fast, a blood sample for glucose metabolism panel (glucose, insulin, C-peptide, glucagon, and active GLP-1) was taken immediately prior to the subject drinking a standardized mixed meal (t=“0 minutes”). The subject then consumed a can of Ensure Plus, which is a nutritional supplement containing the components of fat, carbohydrate, and protein that make up a standard mixed-meal tolerance test (MMTT). After the meal, timed, serial blood samples were obtained for measurement of glucose and parameters related to glucose metabolism (with no additional food intake during this time). The MMTT was performed on Day-1 and Day 28.
Blood samples for the glucose metabolism panel were drawn at t=“0 minutes” (before meal) and at 15, 30, 45, 60, 90, 120, 180, and 240 minutes (±5 minutes) after consumption of the standardized meal. Additional sampling for glucagon, insulin, C-peptide, and glucose was taken at 6, 8, 12, and 24 hours (±30 minutes) post-administration (t=“0 minutes”) of the standardized meal on Day −1 and 28.
The change and percent change from baseline (Day-1) to the end of the 28 days of treatment (Day 28) in glucose AUC0-4 h were determined as measured by the MMTT. In addition, the change from baseline (Day −1) to Day 28 in active GLP-1, glucagon, insulin, and C-peptide AUC0-4 h were also measured by MMTT.

[7] = Day 28, ITT, metformin and dapagliflozin background
[8] = baseline to Day 28, vs placebo, ANCOVA

SMILES: CCCCCCCCCCCCCCCC(=O)N[C@@H](CCC(=O)NCCCC[C@H](NC(=O)[C@H](CC(=O)O)NC(=O)[C@H](CO)NC(=O)[C@@H](NC(=O)[C@H](Cc1ccccc1)NC(=O)[C@@H](NC(=O)CNC(=O)[C@H](CCC(N)=O)NC(=O)[C@H](CO)NC(=O)[C@@H](N)Cc1c[nH]cn1)[C@@H](C)O)[C@@H](C)O)C(=O)N[C@@H](CO)C(=O)N[C@@H](CCC(=O)O)C(=O)N[C@@H](Cc1ccc(O)cc1)C(=O)N[C@@H](CC(C)C)C(=O)N[C@@H](CC(=O)O)C(=O)N[C@@H](CO)C(=O)N[C@@H](CCC(=O)O)C(=O)N[C@@H](CCCNC(=N)N)C(=O)N[C@@H](C)C(=O)N[C@@H](CCCNC(=N)N)C(=O)N[C@@H](CC(=O)O)C(=O)N[C@@H](Cc1ccccc1)C(=O)N[C@H](C(=O)N[C@@H](C)C(=O)N[C@@H](Cc1c[nH]c2ccccc12)C(=O)N[C@@H](CC(C)C)C(=O)N[C@@H](CCC(=O)O)C(=O)N[C@@H](C)C(=O)NCC(=O)NCC(=O)O)C(C)C)C(=O)O [Cotadutide]
- Hemoglobin A1c, Day 28, mean ([1]; Day 28, ITT): 6.75%
- Hemoglobin A1c, Day 28, median ([1]; Day 28, ITT): 6.65%
- Hemoglobin A1c, change from baseline, mean ([1]; baseline to Day 28): −1.04%
- Hemoglobin A1c, change from baseline, median ([1]; baseline to Day 28): −1.10%
- Hemoglobin A1c, change from baseline, LS mean ([1]; baseline to Day 28, ANCOVA): −1.03%
- Hemoglobin A1c, change from baseline, LS mean difference ([1]; baseline to Day 28, vs placebo): −0.58%
- Incidence of treatment-emergent adverse events (TEAEs) ([2]; As-treated, 28 days): 52.0%
- Subjects with a TEAE that led to discontinuation of investigational product ([2]; abdominal pain and vomiting): Two
- Incidence of investigational product-related TEAEs ([2]; as judged by the investigator): 40.0%
- Heart rate ([2]; compared with the placebo group): increased heart rate was observed
- Blood pressure (BP) ([2]; in vivo): No meaningful changes
- Hematology, serum chemistry, or urinalysis laboratory values ([2]; in vivo): no clinically meaningful trends
- Severity of TEAEs ([2]; in vivo): mild (Grade 1) or moderate (Grade 2)
- Electrocardiogram (ECG) parameters ([2]; with the exception of heart rate): no clinically meaningful trends
- Change from baseline in CGM mean glucose over 24 hours, mean ([3]; Day 7 (100 μg)): -34.74 mg/dL
- Change from baseline in MAGE of CGM glucose, mean ([3]; Day 7 (100 μg)): -25.74 mg/dL
- Change in CGM glucose AUC0-24 h from baseline, mean ([3]; Day 7 (100 μg)): -832.66 mg·h/dL
- Change in CGM glucose AUC0-24 h from baseline, median ([3]; Day 7 (100 μg)): -962.95 mg·h/dL
- Change in SD over 24 hours in CGM glucose from baseline, mean ([3]; Day 7 (100 μg)): -7.21 mg/dL
- Change in SD over 24 hours in CGM glucose from baseline, median ([3]; Day 7 (100 μg)): -11.16 mg/dL
- Change from baseline in percentage of CGM glucose readings within the hyperglycemic range, mean ([3]; Day 7): −13.99%
- Change from baseline in percentage of CGM glucose readings within the euglycemic range, mean ([3]; Day 7): 7.12%
- Change from baseline in CGM mean glucose over 24 hours, mean ([3]; Day 14 (200 μg)): -28.34 mg/dL
- Change from baseline in MAGE of CGM glucose, mean ([3]; Day 14 (200 μg)): -26.59 mg/dL
- Change in CGM glucose AUC0-24 h from baseline, mean ([3]; Day 14 (200 μg)): -666.05 mg·h/dL
- Change in CGM glucose AUC0-24 h from baseline, median ([3]; Day 14 (200 μg)): -897.02 mg·h/dL
- Change in SD over 24 hours in CGM glucose from baseline, mean ([3]; Day 14 (200 μg)): -7.52 mg/dL
- Change in SD over 24 hours in CGM glucose from baseline, median ([3]; Day 14 (200 μg)): -8.36 mg/dL
- Change from baseline in percentage of CGM glucose readings within the hyperglycemic range, mean ([3]; Day 14): −9.81%
- Change from baseline in percentage of CGM glucose readings within the euglycemic range, mean ([3]; Day 14): 5.31%
- Change in CGM glucose AUC0-24 h from baseline, mean ([3]; Day 28 (LOCF) (300 μg)): -695.16 mg·h/dL
- Change in CGM glucose AUC0-24 h from baseline, median ([3]; Day 28 (LOCF) (300 μg)): -928.48 mg·h/dL
- Change in SD over 24 hours in CGM glucose from baseline, mean ([3]; Day 28 (LOCF) (300 μg)): -8.89 mg/dL
- Change in SD over 24 hours in CGM glucose from baseline, median ([3]; Day 28 (LOCF) (300 μg)): -9.57 mg/dL
- Change in CGM glucose AUC0-24 h from baseline, LS mean ([3]; Day 28 (LOCF), ANCOVA): -658.64 mg·h/dL
- Change in SD over 24 hours in CGM glucose from baseline, LS mean ([3]; Day 28 (LOCF), ANCOVA): -9.73 mg/dL
- Change in SD over 24 hours in CGM glucose from baseline, LS mean difference ([3]; Day 28 (LOCF), vs placebo): -8.45 mg/dL
- Change in CGM glucose AUC0-24 h from baseline, LS mean difference ([3]; Day 28 (LOCF), vs placebo, ANCOVA): -806.61 mg·h/dL
- CV of CGM glucose over 24 hours, change from baseline, LS mean difference ([3]; Day 28, vs placebo): −2.41%
- Change from baseline in CGM mean glucose over 24 hours, LS mean difference ([3]; Day 28, vs placebo): -34.06 mg/dL
- Change from baseline in MAGE of CGM glucose, LS mean difference ([3]; Day 28, vs placebo): -24.83 mg/dL
- Change from baseline in percentage of CGM glucose readings within the euglycemic range, LS mean difference ([3]; Day 28, vs placebo): 8.78%
- Change from baseline in percentage of CGM glucose readings within the hyperglycemic range, LS mean difference ([3]; Day 28, vs placebo): −12.83%
- 7-Day CGM mean glucose, mean ([3]; Days 1 to 7 (100 μg dose)): 116.82 mg/dL
- 7-Day CGM mean glucose, median ([3]; Days 1 to 7 (100 μg dose)): 111.40 mg/dL
- 7-Day CGM mean glucose, mean ([3]; Days 8 to 14 (200 μg dose)): 118.78 mg/dL
- 7-Day CGM mean glucose, median ([3]; Days 8 to 14 (200 μg dose)): 113.48 mg/dL
- 7-Day CGM mean glucose, mean ([3]; Days 15 to 21 (300 μg dose)): 120.94 mg/dL
- 7-Day CGM mean glucose, median ([3]; Days 15 to 21 (300 μg dose)): 106.17 mg/dL
- 7-Day CGM mean glucose, mean ([3]; Days 22 to 28 (300 μg dose)): 115.61 mg/dL
- 7-Day CGM mean glucose, median ([3]; Days 22 to 28 (300 μg dose)): 108.78 mg/dL
- Change from baseline in percentage of CGM glucose readings within the hypoglycemic range, LS mean difference ([3]; in vivo): 3.35%
- Subjects ADA positive post-baseline ([4]; 3 subjects): 12.5%
- Subjects ADA positive at Day 29 ([4]; Day 29, 1 subject): 4.2%
- Subjects ADA positive at the End of Study ([4]; End of Study, 2 subjects): 8.3%
- Treatment boosted ADA (baseline titre boosted 4-fold or higher) ([4]; during drug administration): No subjects had a treatment boosted ADA
- Effect of dapagliflozin on cotadutide clinical PK ([5]; cotadutide 100 to 300 μg/day): not affected by the presence of dapagliflozin
- half-life ([5]; human, plasma, subcutaneous, 300 ug, across doses 100, 200 and 300 μg, read-out: Cotadutide half-life t1/2): 8.8 to 9.1 h
- Plasma glucose AUC0-4 h after MMTT, Day 28, mean [6, 7]: 523.72 mg·h/dL
- Plasma glucose AUC0-4 h after MMTT, Day 28, median [6, 7]: 481.57 mg·h/dL
- Plasma glucose AUC0-4 h after MMTT, change from baseline, LS mean ([6]; baseline to Day 28, ANCOVA): -154.37 mg·h/dL
- Plasma glucose AUC0-4 h after MMTT, percent change from baseline, LS mean ([6]; baseline to Day 28, ANCOVA): −22.30%
- Plasma glucose AUC0-4 h after MMTT, change from baseline, mean ([6]; baseline to Day 28, ITT): -151.29 mg·h/dL
- Plasma glucose AUC0-4 h after MMTT, change from baseline, median ([6]; baseline to Day 28, ITT): -148.29 mg·h/dL
- Plasma glucose AUC0-4 h after MMTT, percent change from baseline, mean ([6]; baseline to Day 28, ITT): −22.03%
- Plasma glucose AUC0-4 h after MMTT, percent change from baseline, median ([6]; baseline to Day 28, ITT): −25.55%
- Plasma glucose AUC0-4 h after MMTT, change from baseline, LS mean difference [6, 8]: -143.09 mg·h/dL
- Plasma glucose AUC0-4 h after MMTT, percent change from baseline, LS mean difference [6, 8]: −22.17%

From patent US20230012936A1, “COMBINATION THERAPY USING GLUCAGON AND GLP-1 CO-AGONISTS FOR THE TREATMENT OF OBESITY” (MEDIMMUNE, LLC, priority 2019, published 2023)
